In patent US20190307843A1, “SINGLE DOSE METHODS FOR PREVENTING AND TREATING FUNGAL INFECTIONS” (Cidara Therapeutics, Inc., priority 2016, published 2019):
Starred links: 1 amine or outer side, 2 acyl side, 3 side chain; linkers in the order of their positions; H or OH if unused. Positions of bridges follow the written chain, without caps; N, C: chain ends. Non-standard residues stand in square brackets, D forms with d. Residues, ends and D or L forms follow the SMILES beside them. *: point of attachment. Orn(4R-OH,5R-OCH2CH2NMe3+) = C[N+](C)(C)CCO[C@@H](N[*:3])[C@H](O)C[C@H](N[*:1])C(=O)[*:2]; pTerphenylCO(4''-OnC5H11) = CCCCCOc1ccc(-c2ccc(-c3ccc(C(=O)*)cc3)cc2)cc1; hTyr(3S-OH,4S-OH) = N[C@H](C(=O)O)[C@H](O)[C@@H](O)c1ccc(O)cc1; Pro(3S-OH,4S-Me) = C[C@H]1CN[C@H](C(=O)O)[C@H]1O; Hyp = O=C(O)[C@@H]1C[C@@H](O)CN1

Key:
C. albicans strain 529L = assay: Rat model of vulvovaginal candidiasis, vaginal lavage and tissue burden; type: in vivo, Candida albicans
[1] = type: in vivo, rat; details: all treatment dose and duration
Method: The rats were monitored at a frequency appropriate for their clinical condition. Rat weights were recorded at least once daily to ensure animals remained within ethical limits.

[2] = test system: A. fumigatus strain AF293; assay: Murine model of pulmonary aspergillosis (Example 13), terminal lung burden; type: in vivo, Aspergillus fumigatus
Method: A secondary endpoint for the study was terminal lung tissue burden. Immediately following confirmation of death, carcasses were frozen at −20° C. prior to tissue dissection and processing. The frozen carcasses were thawed at room temperature and the lungs removed and placed into pre-weighed bead-beating tubes containing 2 mL of PBS and subjected to mechanical disruption. Organ homogenates were diluted further in PBS and quantitatively cultured for A. fumigatus onto SABC and incubated at 30° C. for 24-48 hours. In addition, a 300 μL aliquot of the undiluted lung tissue homogenate was stored at −80° C. for possible optional assessment of burden by qPCR.

[3] = 5 mg/kg SC Dosed Once, lavage Day 5 post infection
[4] = 5 mg/kg SC Dosed Once, lavage Day 7 post infection
[5] = 5 mg/kg SC Dosed Once, lavage Day 9 post infection
[6] = 5 mg/kg SC Dosed Once, terminal vaginal tissue Day +9 post infection
[7] = 5 mg/kg SC Dosed Twice, lavage Day 1 post infection, pre-treatment
[8] = 5 mg/kg SC Dosed Twice, lavage Day 2 post infection
[9] = 5 mg/kg SC Dosed Twice, lavage Day 3 post infection
[10] = 5 mg/kg SC Dosed Twice, lavage Day 5 post infection
[11] = 5 mg/kg SC Dosed Twice, lavage Day 7 post infection
[12] = 5 mg/kg SC Dosed Twice, lavage Day 9 post infection
[13] = 5 mg/kg SC Dosed Twice, terminal vaginal tissue Day +9 post infection
[14] = 10 mg/kg SC Dosed Once, lavage Day 1 post infection, pre-treatment
[15] = 10 mg/kg SC Dosed Once, lavage Day 2 post infection
[16] = 10 mg/kg SC Dosed Once, lavage Day 3 post infection
[17] = 10 mg/kg SC Dosed Once, lavage Day 5 post infection
[18] = 10 mg/kg SC Dosed Once, lavage Day 7 post infection
[19] = 10 mg/kg SC Dosed Once, lavage Day 9 post infection
[20] = 10 mg/kg SC Dosed Once, terminal vaginal tissue Day +9 post infection

Compound: CCCCCOc1ccc(-c2ccc(-c3ccc(C(=O)N[C@H]4C[C@@H](O)[C@@H](OCC[N+](C)(C)C)NC(=O)[C@@H]5[C@@H](O)[C@@H](C)CN5C(=O)[C@H]([C@@H](C)O)NC(=O)[C@H]([C@H](O)[C@@H](O)c5ccc(O)cc5)NC(=O)[C@@H]5C[C@@H](O)CN5C(=O)[C@H]([C@@H](C)O)NC4=O)cc3)cc2)cc1 [CD101] ({pTerphenylCO(4''-OnC5H11)}-[Orn(4R-OH,5R-OCH2CH2NMe3+)]T[Hyp][hTyr(3S-OH,4S-OH)]T[Pro(3S-OH,4S-Me)]; lactam 1-C)
- Group Geometric mean (C. albicans strain 529L; [3]): 1.70 × 10^3 CFU/mL
- Log Group Geometric mean (C. albicans strain 529L; [3]): 3.23 CFU/mL
- Log reduction from vehicle control (C. albicans strain 529L; [3]): 0.99 CFU/mL
- Group Geometric mean (C. albicans strain 529L; [4]): 4.56 × 10^3 CFU/mL
- Log Group Geometric mean (C. albicans strain 529L; [4]): 3.66 CFU/mL
- Log reduction from vehicle control (C. albicans strain 529L; [4]): 0.52 CFU/mL
- Group Geometric mean (C. albicans strain 529L; [5]): 4.58 × 10^3 CFU/mL
- Log Group Geometric mean (C. albicans strain 529L; [5]): 3.66 CFU/mL
- Log reduction from vehicle control (C. albicans strain 529L; [5]): 0.64 CFU/mL
- Group Geometric mean (C. albicans strain 529L; [6]): 1.37 × 10^5 CFU/g
- Log Group Geometric mean (C. albicans strain 529L; [6]): 5.14 CFU/g
- Group Geometric mean (C. albicans strain 529L; [7]): 1.83 × 10^3 CFU/mL
- Log Group Geometric mean (C. albicans strain 529L; [7]): 3.26 CFU/mL
- Log reduction from vehicle control (C. albicans strain 529L; [7]): −0.83 CFU/mL
- Group Geometric mean (C. albicans strain 529L; [8]): 2.56 × 10^2 CFU/mL
- Log Group Geometric mean (C. albicans strain 529L; [8]): 2.41 CFU/mL
- Log reduction from vehicle control (C. albicans strain 529L; [8]): 1.29 CFU/mL
- Group Geometric mean (C. albicans strain 529L; [9]): 1.95 × 10^2 CFU/mL
- Log Group Geometric mean (C. albicans strain 529L; [9]): 2.29 CFU/mL
- Log reduction from vehicle control (C. albicans strain 529L; [9]): 1.28 CFU/mL
- Group Geometric mean (C. albicans strain 529L; [10]): 1.73 × 10^3 CFU/mL
- Log Group Geometric mean (C. albicans strain 529L; [10]): 3.24 CFU/mL
- Log reduction from vehicle control (C. albicans strain 529L; [10]): 0.98 CFU/mL
- Group Geometric mean (C. albicans strain 529L; [11]): 6.47 × 10^2 CFU/mL
- Log Group Geometric mean (C. albicans strain 529L; [11]): 2.81 CFU/mL
- Log reduction from vehicle control (C. albicans strain 529L; [11]): 1.37 CFU/mL
- Group Geometric mean (C. albicans strain 529L; [12]): 1.28 × 10^3 CFU/mL
- Log Group Geometric mean (C. albicans strain 529L; [12]): 3.11 CFU/mL
- Log reduction from vehicle control (C. albicans strain 529L; [12]): 1.19 CFU/mL
- Group Geometric mean (C. albicans strain 529L; [13]): 4.00 × 10^4 CFU/g
- Log Group Geometric mean (C. albicans strain 529L; [13]): 4.60 CFU/g
- Group Geometric mean (C. albicans strain 529L; [14]): 3.68 × 10^2 CFU/mL
- Log Group Geometric mean (C. albicans strain 529L; [14]): 2.57 CFU/mL
- Log reduction from vehicle control (C. albicans strain 529L; [14]): −0.13 CFU/mL
- Group Geometric mean (C. albicans strain 529L; [15]): 2.48 × 10^2 CFU/mL
- Log Group Geometric mean (C. albicans strain 529L; [15]): 2.39 CFU/mL
- Log reduction from vehicle control (C. albicans strain 529L; [15]): 1.30 CFU/mL
- Group Geometric mean (C. albicans strain 529L; [16]): 23.2 CFU/mL
- Log Group Geometric mean (C. albicans strain 529L; [16]): 1.37 CFU/mL
- Log reduction from vehicle control (C. albicans strain 529L; [16]): 2.21 CFU/mL
- Group Geometric mean (C. albicans strain 529L; [17]): 1.73 CFU/mL
- Log Group Geometric mean (C. albicans strain 529L; [17]): 0.24 CFU/mL
- Group Geometric mean (C. albicans strain 529L; [18]): 2.59 CFU/mL
- Log Group Geometric mean (C. albicans strain 529L; [18]): 0.41 CFU/mL
- Log reduction from vehicle control (C. albicans strain 529L; [18]): 3.77 CFU/mL
- Group Geometric mean (C. albicans strain 529L; [19]): 2.75 CFU/mL
- Log Group Geometric mean (C. albicans strain 529L; [19]): 0.44 CFU/mL
- Log reduction from vehicle control (C. albicans strain 529L; [19]): 3.86 CFU/mL
- Group Geometric mean (C. albicans strain 529L; [20]): 5.52 CFU/g
- Log Group Geometric mean (C. albicans strain 529L; [20]): 0.74 CFU/g
- Log reduction from vehicle control (C. albicans strain 529L; [20]): 4.75 CFU/g
- burden reduction (C. albicans strain 529L; CD101 5 mg/kg once or twice, lavage Day 5 post infection): about 1 Log10 CFU/m
- rats having burden below the limit of detection (C. albicans strain 529L; CD101 10 mg/kg dosed once, lavage Day 5 post infection): 5/6
- rats with burdens below the levels of detection (C. albicans strain 529L; CD101 10 mg/kg dosed once, terminal vaginal tissue Day 9): 5/6
- reduction in burden (C. albicans strain 529L; all doses of CD101, lavage Day 2 post infection): about 1.3 Log10 CFU/mL
- tolerability [1]: well tolerated with no adverse events observed
- Group Geometric mean (lung burden) ([2]; CD101 5 mg/kg IP Day 0): 5.65 × 10^4 CFU/g
- Log10 Group Geometric mean (lung burden) ([2]; CD101 5 mg/kg IP Day 0): 4.75 CFU/g
- Log10 reduction from vehicle control ([2]; CD101 5 mg/kg IP Day 0): −0.98 CFU/g
- Group Geometric mean (lung burden) ([2]; CD101 5 mg/kg IP Day −1): 3.75 × 10^4 CFU/g
- Log10 Group Geometric mean (lung burden) ([2]; CD101 5 mg/kg IP Day −1): 4.57 CFU/g
- Log10 reduction from vehicle control ([2]; CD101 5 mg/kg IP Day −1): −0.80 CFU/g
- Group Geometric mean (lung burden) ([2]; CD101 5 mg/kg IP Day −3): 5.71 × 10^4 CFU/g
- Log10 Group Geometric mean (lung burden) ([2]; CD101 5 mg/kg IP Day −3): 4.76 CFU/g
- Log10 reduction from vehicle control ([2]; CD101 5 mg/kg IP Day −3): −0.98 CFU/g
- Group Geometric mean (lung burden) ([2]; CD101 5 mg/kg IP Day −5): 6.36 × 10^4 CFU/g
- Log10 Group Geometric mean (lung burden) ([2]; CD101 5 mg/kg IP Day −5): 4.80 CFU/g
- Log10 reduction from vehicle control ([2]; CD101 5 mg/kg IP Day −5): −1.03 CFU/g
- Group Geometric mean (lung burden) ([2]; CD101 10 mg/kg IP Day −1): 5.17 × 10^3 CFU/g
- Log10 Group Geometric mean (lung burden) ([2]; CD101 10 mg/kg IP Day −1): 3.71 CFU/g
- Log10 reduction from vehicle control ([2]; CD101 10 mg/kg IP Day −1): 0.06 CFU/g
- Group Geometric mean (lung burden) ([2]; CD101 10 mg/kg IP Day −3): 7.34 × 10^3 CFU/g
- Log10 Group Geometric mean (lung burden) ([2]; CD101 10 mg/kg IP Day −3): 3.87 CFU/g
- Log10 reduction from vehicle control ([2]; CD101 10 mg/kg IP Day −3): −0.09 CFU/g
- Group Geometric mean (lung burden) ([2]; CD101 10 mg/kg IP Day −5): 3.40 × 10^4 CFU/g
- Log10 Group Geometric mean (lung burden) ([2]; CD101 10 mg/kg IP Day −5): 4.53 CFU/g
- Log10 reduction from vehicle control ([2]; CD101 10 mg/kg IP Day −5): −0.76 CFU/g
- Group Geometric mean (lung burden) ([2]; CD101 20 mg/kg IP Day −1): 1.12 × 10^4 CFU/g
- Log10 Group Geometric mean (lung burden) ([2]; CD101 20 mg/kg IP Day −1): 4.05 CFU/g
- Log10 reduction from vehicle control ([2]; CD101 20 mg/kg IP Day −1): −0.28 CFU/g
- Group Geometric mean (lung burden) ([2]; CD101 20 mg/kg IP Day −3): 4.92 × 10^4 CFU/g
- Log10 Group Geometric mean (lung burden) ([2]; CD101 20 mg/kg IP Day −3): 4.69 CFU/g
- Log10 reduction from vehicle control ([2]; CD101 20 mg/kg IP Day −3): −0.92 CFU/g
- Group Geometric mean (lung burden) ([2]; CD101 20 mg/kg IP Day −5): 8.35 × 10^3 CFU/g
- Log10 Group Geometric mean (lung burden) ([2]; CD101 20 mg/kg IP Day −5): 3.92 CFU/g
- Log10 reduction from vehicle control ([2]; CD101 20 mg/kg IP Day −5): −0.15 CFU/g
